{"source": "paper PMC10103840", "about": "(Frontiers in Pharmacology, 2023)", "key": {"human placental barrier": {"tested_on": "human placental barrier", "settings": "for Sampling (% found): amount removed by sampling during 240 min perfusion; for M perfusate (% found): maternal perfusate after 240 min"}, "BeWo cells": {"tested_on": "BeWo cells", "settings": "ref Spiess et al., 2022b, cited from earlier work"}, "BeWo b30 cells [1]": {"tested_on": "BeWo b30 cells", "test": "Sodium fluorescein (NaF) exclusion assay for monolayer formation", "format": "in vitro ADME, human", "settings": "day 9 after seeding, 5 μM apical, 60 min", "description": "Measurement of transepithelial electrical resistance (TER) was used to assess the tightness of a cell-to-cell barrier, and the electrical capacitance Ccl, provided additional information about the properties of the cell layer (e.g., presence of microvilli and other membrane extrusions). TER and Ccl values were recorded in 15 min time intervals, using a cellZscope®. TER values were corrected for the surface area (Ωcm^2) and the reference resistance (well with the same filter insert and medium, but absence of cells). Moreover, a permeability assay with sodium fluorescein (NaF) was performed on days 7–11 (n = 3). The basolateral compartment of a transparent 24-well plate consisted of PBS only (1′000 μL) while NaF (5 μM in PBS; 200 μL) was added to the apical compartment for 60 min. The control consisted of cell-free inserts (n = 3). Basolateral samples (50 μL) were directly added to black Nunc MaxiSorp microtiter plates, and concentrations were determined using a Cytation 3 fluorescence microplate reader (BioTek Instruments; excitation wavelength 460 nm; emission wavelength 515 nm). […]\nhyperforin, h ypericin, and valerenic acid. The compounds were spiked into PBS and then […]\nto avoid interference of any stabilit y issues. […]\nfour independent experiments.\nSupplementary Figure 3. Evaluation of monolayer formation using a sodium fluorescein […]\nControl consists of a cell-free insert […]"}, "[2]": {"test": "System adherence test (empty perfusion chamber, maternal circuit only)", "format": "in vitro ADME", "settings": "% of initial concentration, 5 μM in PM, no placental tissue, 240 min, n = 3", "description": "The dissolution and adherence of the compounds to the perfusion equipment and to the tubing system was assessed before starting perfusions with human placentae. […] The compounds were directly dissolved in PM at a final concentration of 5 μM (100 mL reservoir) and individually tested in three independent experiments (n = 3)."}, "[3]": {"test": "Stability assay in PBS, perfusion medium and placental homogenates", "format": "in vitro ADME, human", "settings": "360 min", "description": "In short, after spiking the various matrices with the study compounds, samples were either processed immediately for U(H)PLC-MS/MS analysis (C0), or kept at 4°C/37°C on an orbital shaker (600 rpm) for 360 min before processing for U(H)PLC-MS/MS analysis. Samples were processed via solid phase extraction or protein precipitation prior to analysis."}, "placental tissue": {"tested_on": "placental tissue", "test": "Histopathological evaluation of perfused placentae", "design": "species or system human", "description": "Immediately after perfusion the placentae were fixed in 4% paraformaldehyde for at least 24 h. Tissue samples from representative placental tissue sections, each from perfused, non-perfused, and transitional area were prepared to perform a pathological examination. For this purpose, the tissue was embedded in paraffin, cut (∅ 2-3 µm), and stained (standard hematoxylin-eosin stain, Braun-Brenn modified Gram stain) according to the standards of routine histopathological diagnosis of the Department of Pathology and Molecular Pathology (University Hospital of Zurich). […] The blood void and width of the intervillous space and fetal blood vessels in the chorionic villi provided information about the quality of perfusion, and particular attention was paid to the presence of intravascular thrombi. General signs of degeneration, such as vacuolization of the cytotrophoblast, villous vascular endothelium viability, and formation of hydropic villous changes compared with non-perfused tissue indicated whether tissue damage might have occurred during perfusion. Microscopic effects and placental tissue damage in the perfused area were expressed in relative amounts (%) to the non-perfused tissue."}, "[4]": {"test": "In vitro Transwell permeability assay across BeWo b30 cell layer", "settings": "human", "description": "(§1) BeWo b30 choriocarcinoma cells were obtained from Dr. Tina Buerki-Thurnherr (Empa, St. Gallen, Switzerland), with permission from Dr. Alan L. Schwartz (Washington University School of Medicine, St. Louis MO, USA), and were cultivated in F-12 K Nut Mix supplemented with 10% heat inactivated FBS, antibiotics (100 U/mL penicillin, 100 µg/mL […]), and 2 mM L-glutamine (all from Gibco). The cells were cultivated in a humidified incubator at 37°C and 5% CO2 atmosphere.\n(§2) BeWo b30 cells were cultured on Transwell® polycarbonate membrane inserts (24-well format; 0.4 μm pore size, 0.33 cm^2 cell growth area, 200 μL apical volume, 1′000 μL basolateral volume; Corning, Sigma-Aldrich) at a density of 60′000 cells/well. These inserts were then cultivated in a cellZscope (nanoAnalytics) at 37°C/5% CO2. Cell culture medium was replaced every 2 days up to 11 days to find the best possible conditions.\n(§3) BeWo b30 cells were cultured in transparent 24-well plates under the same conditions as mentioned above and transferred to the cellZscope® at day 8 to record TER and Ccl values. After 24 h (day 9) and when a TER of 30–60 Ωcm^2 was reached and Ccl was between 0.5 and 5.0 μF/cm^2, the permeability assay was initiated by adding valerenic acid (5 μM; in HBSS with 4% BSA) to the apical compartment, while the basolateral compartment contained 1′000 μL of HBSS only. […] Samples (150 μL apical, 800 μL basolateral) were collected at each time point (0, 15, 30, 60 min; one insert per time point). After 60 min, a part of the inserts was transferred back to the cellZscope® to monitor TER and Ccl values during another 24 h. The cells grown on the other part of the inserts were quickly washed with 200 μL of cold HBSS and then lysed with 700 μL acetonitrile (100 μL apical, 600 μL basolateral) for 40 min on an orbital shaker (450 rpm, room temperature) to determine the test substance cell contents.\n(§4) Apparent permeability coefficients (Papp) were calculated according to the following Eq. 1: Papp cm/s=∆Q/∆t/ACA0 (1) where ΔQ/Δt is the rate of amount transported to the receiver compartment, A is the membrane surface area (0.33 cm^2), and C A0 is the initial concentration in the apical compartment.\n(§5) The clearance values were calculated according to the following Eq. 2 ([Neuhaus et al., 2008]): Clearance μL=CBnVB/CA−VB/VA∙∑CBn−1 (2) where C Bn and V B are the concentration and volume in the basolateral compartment at a specific timepoint (n), respectively; C A and VA are the concentration and volume in the apical compartment, respectively, and C Bn-1 is the total amount of substance found in the basolateral compartment up to the previous timepoint (n-1).\n(§6) Recovery (mass balance) of each compound was calculated according to the following Eq. 3: Recovery %=CAfVA+CBfVB+CCfVC/CA0VA∙100 (3) where C Af , C Bf and C Cf are the final compound concentrations in apical, basolateral, and cellular compartments, respectively; C A0 is the initial concentration in the apical compartment, and V A , V B and V C are the volumes in the respective compartments.\n(§7) For valerenic acid, 150 µL of the IS in MeOH were added to 50 µL of sample, and the mixture centrifuged for 20 min at 13′200 rpm/16′100 rcf at 10°C (Centrifuge 5415R, Eppendorf). An aliquot (50 µL) of the supernatant was collected and transferred into HPLC vials. Vials were centrifuged for additional 20 min prior to U(H)PLC-MS/MS analysis in full loop mode (2 µL)."}, "BeWo b30 cells [5]": {"tested_on": "BeWo b30 cells", "test": "In vitro Transwell permeability assay across BeWo b30 cell layer", "description": "as §1, §2, §3, §4, §5, §6, §7"}, "in vitro": {"test": "in vitro", "settings": "human, pH 7.2"}, "[6]": {"test": "Transwell control experiments across cell-free inserts", "settings": "semi-permeable cell-free insert, within 60 min, 5 μM"}, "[7]": {"settings": "after 240 min of perfusion, 5 μM added to maternal circuit"}, "[8]": {"settings": "% of amount in maternal sample at beginning"}, "[9]": {"settings": "non-perfused area of same placenta"}}, "note": "Where “and” joins values, the source holds several entries; their conditions need not be identical. Identical values can stand only once.", "data": [{"smiles": "CC(C)=CCC[C@]1(C)[C@@H](CC=C(C)C)C[C@]2(CC=C(C)C)C(=O)C(CC=C(C)C)=C(O)[C@@]1(C(=O)C(C)C)C2=O", "note": "[Hyperforin, hyperforin]", "values": [{"measurement": "Transplacental transfer (in words)", "setting": "human placental barrier; 240 min perfusion, 5 μM maternal", "result": "little transfer to the fetal circuit"}, {"measurement": "Concentration in the maternal compartment", "setting": "human placental barrier; [7]", "result": "68.6 % of initial concentration"}, {"measurement": "Sampling (% found)", "setting": "human placental barrier", "result": "21.0 ± 4.5", "unit": "%"}, {"measurement": "M perfusate (% found)", "setting": "human placental barrier; [8]", "result": "52.2 ± 21.5% and 52.2%"}, {"measurement": "Concentration with increased apoptosis / apoptotic effects", "setting": "BeWo cells", "result": "≥ 3000", "unit": "nM"}]}, {"smiles": "O=C([O-])c1ccccc1-c1c2ccc(=O)cc-2oc2cc([O-])ccc12.[Na+].[Na+]", "note": "[NaF, sodium fluorescein]", "values": [{"measurement": "Basolateral amount of NaF", "setting": "BeWo b30 cells [1]", "result": "2.8 % of the initial NaF concentration"}]}, {"smiles": "CC1=C2[C@H](/C=C(\\C)C(=O)O)CC[C@@H](C)[C@H]2CC1", "note": "[Valerenic acid, valerenic acid]", "values": [{"measurement": "Compound lost / adhering to the perfusion equipment", "setting": "[2]", "result": "5.6% and 5.6% ± 1.9%"}, {"measurement": "Stability in PBS and PM", "setting": "[3]", "result": "approx. 100%"}, {"measurement": "Global placental pathology: Else", "setting": "placental tissue", "result": "Formation of artificial cavities in 10% of perfused areas and N and Singular non-occlusive thrombus in stem villus; CCB"}, {"measurement": "Sharp transition perfused/non-perfused", "setting": "placental tissue", "result": "Y and N"}, {"measurement": "Extravasations into villous stroma (in words)", "setting": "placental tissue; after perfusion", "result": "no extravasations into villous stroma"}, {"measurement": "Ruptures of villous vessels (in words)", "setting": "placental tissue; after perfusion", "result": "no ruptures of villous vessels"}, {"measurement": "Emptiness of villous vessels in non-perfused", "setting": "placental tissue; [9]", "result": "10% and 1%"}, {"measurement": "Hydropic changes in non-perfused", "setting": "placental tissue; [9]", "result": "5% and 0%"}, {"measurement": "Intervillous spaces without blood in non-perfused", "setting": "placental tissue; [9]", "result": "70% and 50% and 60% and 40%"}, {"measurement": "Thrombi in villous vessels: in non-perfused too?", "setting": "placental tissue; [9]", "result": 1, "unit": "%"}, {"measurement": "Vacuolated trophoblast in villi: in non-perfused too?", "setting": "placental tissue; [9]", "result": "0% and 5%"}, {"measurement": "Thrombi in vessels of stem villi (in words)", "setting": "placental tissue; perfused and non-perfused", "result": "no thrombi detectable"}, {"measurement": "Dilatated intervillous space", "setting": "placental tissue; perfused area", "result": "50% and 90% and 70%"}, {"measurement": "Intervillous spaces without blood", "setting": "placental tissue; perfused area", "result": 95, "unit": "%"}, {"measurement": "Emptiness of villous vessels", "setting": "placental tissue; perfused area, individual experiments", "result": "95% and 80% (2×) and 90%"}, {"measurement": "recovery at 60 min, 5 μM", "setting": "[4]", "result": 73.7, "unit": "%"}, {"measurement": "Passage across the placental cell layer (in words)", "setting": "BeWo b30 cells [5]; 5 μM apical, HBSS with 4% BSA, 60 min", "result": "did not cross the placental cell layer within 60 min"}, {"measurement": "Papp", "setting": "BeWo b30 cells [5]; apical to basolateral, BeWo b30 cell layer, 5 μM", "result": "zero"}, {"measurement": "Concentration in the fetal compartment", "setting": "human placental barrier; [7]", "result": "44.0 % of initial concentration"}, {"measurement": "Concentration in the maternal compartment", "setting": "human placental barrier; [7]", "result": "45.0 % of initial concentration"}, {"measurement": "Sampling (% found)", "setting": "human placental barrier", "result": "24.1 ± 4.8", "unit": "%"}, {"measurement": "F perfusate (% found)", "setting": "human placental barrier; fetal perfusate after 240 min, % of amount in maternal sample at beginning", "result": "33.1 ± 10.7% and 33.1%"}, {"measurement": "FM ratio at 240 min", "setting": "human placental barrier; fetal/maternal concentration ratio, 240 min, antipyrine from control perfusions", "result": 1.01}, {"measurement": "M perfusate (% found)", "setting": "human placental barrier; [8]", "result": 34.4, "unit": "%"}, {"measurement": "Time to equilibrium between fetal and maternal compartment", "setting": "human placental barrier; perfusion profiles, antipyrine as connectivity control", "result": 240, "unit": "min"}, {"measurement": "recovery at 240 min, 5 μM", "setting": "in vitro", "result": 91.5, "unit": "%"}, {"measurement": "Concentrations not lowering viability, no increase in apoptosis or genotoxicity, no negative effect on metabolic activity and cell differentiation", "setting": "BeWo cells; BeWo b30 cells", "result": "up to 30 μM"}, {"measurement": "Clearance across cell-free insert", "setting": "[6]", "result": 28.3, "unit": "µL"}]}]}
